ChEMBL document CHEMBL1121972, “Spasmolytic agents. 2. 1,2,3,4-Tetrahydro-2-naphthylamine derivatives” (1982)

Key:
Canis familiaris [1] = assay: Antispasmodic activity was measured on stomach contraction in anesthetized dog after iv administration of a dose of 0.1 mg/kg; type: functional, Canis lupus familiaris
Canis familiaris [2] = assay: Antispasmodic activity was measured on colonic contraction in anesthetized dog after iv administration of a dose of 0.1 mg/kg; type: functional, Canis lupus familiaris

| SMILES | Activity (Canis familiaris [1]) | Activity (Canis familiaris [2]) |
| --- | --- | --- |
| CCN(CCCCO)C1CCc2cc(OC)ccc2C1 (stereo not given) | <5 | 2.6 |
| CCN(CCCCOCc1ccc(OC)c(OC)c1)C1CCc2cc(OC)ccc2C1 (stereo not given) | <5 | -4.3 |
| CCN(CCCCOC(=O)c1cc(OC)c(OC)c(OC)c1)C1CCc2cc(OC)ccc2C1.CS(=O)(=O)O (stereo not given) | <5 | 1.1 |
| CCN(CCCCCCO)C1CCc2cc(OC)ccc2C1 (stereo not given) | – | 5.2 |
| CCCN(CCCCOC(=O)c1ccc(OC)c(OC)c1)C1CCc2cc(OC)ccc2C1.Cl (stereo not given) | <5 | – |
| CCOc1ccc2c(c1)CCC(N(CC)CCCCOC(=O)c1ccc(OC)c(OC)c1)C2.Cl (stereo not given) | <5 | 7.4 |
| COc1ccc2c(c1)CCC(N(C)CCCCOC(=O)c1ccc(OC)c(OC)c1)C2.Cl (stereo not given) | <5 | -4.9 |
| CCN(CCCCOC(=O)c1ccc(OC)c(OC)c1)C1CCc2cc(OC)c(OC)cc2C1.Cl (stereo not given) | 11.8 | – |
| CCN(CCCCOC(=O)c1ccc(OC)c(OC)c1)C1CCc2ccccc2C1.Cl (stereo not given) | <5 | – |
| CCN(CCCCOC(=O)c1ccc(OC)c(OC)c1)C1CCc2cc(OC)ccc2C1.Cl (stereo not given) | 6.6 | – |
| CCN(CC(C)(C)COC(=O)c1ccc(OC)c(OC)c1)C1CCc2cc(OC)ccc2C1.Cl (stereo not given) | <5 | 15.8 |
| CCCOc1ccc(C(=O)OCCCCN(CC)C2CCc3cc(OC)ccc3C2)cc1.Cl (stereo not given) | <5 | 10.2 |
| CCN(CCOC(=O)c1ccc(OC)c(OC)c1)C1CCc2cc(OC)ccc2C1.Cl (stereo not given) | <5 | 11.4 |
| CCN(CCCCOC(=O)c1c(OC)cccc1OC)C1CCc2cc(OC)ccc2C1.Cl (stereo not given) | <5 | -8.7 |
| CCN(CCCCOC(=O)c1ccc(OC)c(OC)c1)C1CCc2c(cccc2OC)C1.Cl (stereo not given) | <5 | 13.3 |
| CCN(CCCCCCCCCCOC(=O)c1ccc(OC)c(OC)c1)C1CCc2cc(OC)ccc2C1.Cl (stereo not given) | <5 | 13.7 |
| CCN(CCCCOC(=O)c1ccc(OC)cc1)C1CCc2cc(OC)ccc2C1.Cl (stereo not given) | <5 | 8.1 |

| SMILES | Activity (Canis familiaris [1]) | Activity (Canis familiaris [2]) |
| --- | --- | --- |
| CCN(CCCCOC(=O)c1ccc(OC)c(OC)c1)C1CCc2c(OC)ccc(OC)c2C1.Cl (stereo not given) | <5 | 9.2 |
| CCN(CCOCCOC(=O)c1ccc(OC)c(OC)c1)C1CCc2cc(OC)ccc2C1.Cl (stereo not given) | <5 | 0 |
| COc1ccc2c(c1)CCC(N(CCCCOC(=O)c1ccc(OC)c(OC)c1)C(C)C)C2.Cl (stereo not given) | <5 | 19.6 |
| CCN(CCCCOC(=O)c1ccc2c(c1)OCO2)C1CCc2cc(OC)ccc2C1.Cl (stereo not given) | <5 | 1.3 |
| CCN(CCCCCCOC(=O)c1ccc(OC)c(OC)c1)C1CCc2ccccc2C1.Cl (stereo not given) | 31.3 | – |
| CCN(CCCCCCOC(=O)c1ccc(OC)c(OC)c1)C1CCc2cc(OC)ccc2C1.Cl (stereo not given) | <5 | – |
| CCOc1ccc(C(=O)OCCCCN(CC)C2CCc3cc(OC)ccc3C2)cc1.Cl (stereo not given) | <5 | -2.5 |
| CCCOc1ccc2c(c1)CCC(N(CC)CCCCOC(=O)c1ccc(OC)c(OC)c1)C2.Cl (stereo not given) | <5 | 1.4 |
| CCN(CCCCOC(=O)c1ccccc1)C1CCc2cc(OC)ccc2C1.Cl (stereo not given) | <5 | -2.6 |
| CCOc1cc(C(=O)OCCCCN(CC)C2CCc3cc(OC)ccc3C2)cc(OCC)c1OCC.Cl (stereo not given) | <5 | -6.8 |
| CCN(CCCCOC(=O)c1ccc(OC)c(OC)c1)C1CCc2cccc(OC)c2C1.Cl (stereo not given) | 21.3 | – |
| CCN(CCCCCCOC(=O)c1ccc(OC)c(OC)c1)C1CCc2cc(OC)c(OC)cc2C1.Cl (stereo not given) | 64.5 | – |
| CCN(CCCCOC(=O)c1ccc(OC)c(OC)c1)C1CCc2cc3c(cc2C1)OCO3.Cl (stereo not given) | <5 | 13.4 |
| CCN(CCCCOC(=O)c1ccc(OC)c(OC)c1)C1CCc2ccc(OC)cc2C1.Cl (stereo not given) | 18.1 | – |
| CCN(CCCOC(=O)c1ccc(OC)c(OC)c1)C1CCc2cc(OC)ccc2C1.Cl (stereo not given) | <5 | -1 |
| CCN(CCCCOC(=O)c1ccc(OC)c(OC)c1)C(C)Cc1ccc(OC)cc1 (stereo not given) [MEBEVERINE] | 2.6 | – |
